Reference: publication PMC11878095, “Interspecies signaling modulates the biosynthesis of antimicrobial secondary metabolites related to biological control activities of Pseudomonas fluorescens 2P24” (Microbiology Spectrum, 2025)

Target: T1, PhlH (2P24_PhlH) (Pseudomonas fluorescens, UniProt Q4JIX5)
T1 construct: purified recombinant His6-tagged PhlH
Experiment: ITC ([…] °C, one-site model); EMSA shows PLT releases PhlH from phlG promoter DNA
Format: binding

T1 sequence (Q4JIX5 entry or part of it): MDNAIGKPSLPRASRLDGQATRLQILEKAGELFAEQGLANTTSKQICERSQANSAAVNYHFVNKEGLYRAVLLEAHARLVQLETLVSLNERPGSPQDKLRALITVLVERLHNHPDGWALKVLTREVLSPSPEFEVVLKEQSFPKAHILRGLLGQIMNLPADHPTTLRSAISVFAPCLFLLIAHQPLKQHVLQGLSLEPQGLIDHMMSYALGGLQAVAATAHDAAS

O=C(c1cc(Cl)c(Cl)[nH]1)c1c(O)cccc1O [PLT, pyoluteorin]
Kd: 1000 nM
